# Source: US20250074946A1, “USE OF SE-DR AFFINITY PEPTIDE IN PREPARING DRUG FOR TREATING RHEUMATIC DISEASE” (HEBEI FITNESS BIOTECHNOLOGY CO., LTD., priority 2021, published 2025)
# Where no end group is shown, it is not given here.
# Tests used:
# [1] = test system: CIA mice infected with chronic hepatitis B; assay: CIA mice infected with chronic hepatitis B (Example 8); assay type: in vivo, mouse
# Procedure, shortened: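 DBA/1 mice given rAAV8-1.3HBV (1×10^12 vg/mL) i.v.; 2 days later immunised intradermally with bovine CII/CFA (100 μg collagen), boosted i.p. at day 21 with CII/IFA. Randomised at paw score 1; drugs i.v. every other day for 27 days. Paw inflammation scores, serum viral and liver-function markers measured.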
# [2] = test system: CIA mice; assay type: in vivo, mouse
# Method: Male DBA/1 mice were used to establish CIA model. Methods: Mice were immunized by intradermally injecting an emulsion of bovine C II and CFA (containing 100 μg collagen) at the tail head. After 21 days, the mice were boosted once by intraperitoneally injecting an emulsion of bovine C II and IFA (containing 100 μg collagen). […] Another 10 female DBA/1 mice were not subjected to model establishment and set as the control group. PBS was administrated to both the model group and the control group. Corresponding drugs were administrated to the mice in each group by tail vein injection at the volume of 10 mL/kg, once every other day, for 28 consecutive days, followed by a recovery period of 28 days. The inflammation score of the four paws of the mice in each group was evaluated during the administration (once every other day), and the area under the curve (AUC) of the inflammation score was calculated during the administration. During drug discontinuation, the inflammation scores of the four paws of the […] in each group were continuously evaluated (once every other day), and the rats were sacrificed on day 28 after drug discontinuation. HE staining was performed on the ankle joint for tissue injury evaluation. The specific scoring criteria were as follows: 0=normal synovial tissue; 1=synovial hyperplasia and inflammatory cell infiltration; 2=pannus formation and cartilage erosion; 3=destruction of most of the cartilage with subchondral bone erosion; 4=loss of joint integrity, ankylosis.
sequence,measurement,setting,value
FKGEQAGAGE [APL2],ALT level,"[1]; at sacrifice, day 28",45.88 ± 19.74 U/L
same,Hepatitis B activation rate (Ratio of ALT > 100 U/L),"[1]; at sacrifice, day 28",0%
same,Observation on the daily condition of mice,[1]; during administration,No abnormality
same,Inflammation score and area under the time curve (AUC),"[1]; peptides 50 μmol, Abatacept 100 μg, tail i.v. once every other day for 27 days",89.86 ± 46.14
same,inflammation score during drug discontinuation compared with that at the time of drug discontinuation,[2]; 28 days of observation after stopping at day 28,could maintain the therapeutic effect
same,Pathological score during 28 days of drug discontinuation,"[2]; HE staining of ankle joint, score 0-4",2.05 ± 0.87
same,"AUC, during drug discontinuation (day 29-56)",[2]; inflammation score AUC after stopping administration at day 28,87.55 ± 40.08
same,Incidence of infection in mice,"[2]; mouse, in vivo",0%
same,Observation on the daily state of mice,"[2]; mouse, in vivo",No
